The text below walks through data of US11802132B2, “Small molecules for inducing selective protein degradation and uses thereof” (DANA-FARBER CANCER INSTITUTE, INC., priority 2018, dated 2023).

The target of one experiment is T1, FKBP12 (Homo sapiens, UniProt P62942).
T1 construct: the cells used were MCF7 WT; endogenous in cells; host or cells: MCF7 WT
The experiment is described as follows: FKBP12 degradation in MCF7 breast cancer cell line. In kind it is cell-based. As to conditions: MCF7 WT; 3 μM; 2, 6, 16 and 24 hours. The source says: (§1) A dimerization assay was used to detect the RPN13 and BRD4 dimerization by RAJQ9 (FIG. 40A). […] New compounds were synthesized in the series using the same conditions as RAJQ9 synthesis (See FIG. 26). It was confirmed in the BRD4 assay that the exemplary BRD4 degrader compounds (RAJQ14, RAJQ14-ester) bind to BRD4 (FIG. 44). It was observed that Myc was lost with BRD4 degraders in the MCF7 breast cancer cell line (FIG. 45). For the results shown in FIG. 45, the cells used were MCF7 WT, the exemplary BRD4 degrader compound was RAJQ14 (at 3 μM concentration), and the time points shown in the assay were 2 hours, 6 hours, 16 hours, and 24 hours. […] For the results shown in FIG. 46, the cells used were MCF7 WT, the drug was the exemplary FKBP12 degrader RAFKBP4 (at 3 μM concentration), and the time points shown in the assay were 2 hours, 6 hours, 16 hours, and 24 hours.

The target in the next experiment is RPN13 and BRD4 (Homo sapiens, UniProt O60885+Q16186). The experiment is described as follows: Dimerization assay of RPN13 and BRD4. In kind it is binding. Particulars: indicated concentrations.
From the text: as §1

Structures are written as SMILES. Entries after “also recorded” stand apart in the source; their conditions may differ.

Sequence of RPN13 and BRD4 (Q16186 whole entry, other chains not shown): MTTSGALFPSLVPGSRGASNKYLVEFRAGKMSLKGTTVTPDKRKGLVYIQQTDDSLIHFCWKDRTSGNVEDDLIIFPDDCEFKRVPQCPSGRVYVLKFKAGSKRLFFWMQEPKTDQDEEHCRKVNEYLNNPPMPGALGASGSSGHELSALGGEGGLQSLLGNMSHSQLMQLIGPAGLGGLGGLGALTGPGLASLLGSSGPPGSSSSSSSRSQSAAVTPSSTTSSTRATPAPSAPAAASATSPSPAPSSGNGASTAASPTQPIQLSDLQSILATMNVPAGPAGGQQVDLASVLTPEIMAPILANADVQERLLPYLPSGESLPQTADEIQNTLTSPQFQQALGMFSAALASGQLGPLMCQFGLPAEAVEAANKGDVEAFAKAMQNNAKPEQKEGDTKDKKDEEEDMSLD
T1 sequence (P62942 whole entry): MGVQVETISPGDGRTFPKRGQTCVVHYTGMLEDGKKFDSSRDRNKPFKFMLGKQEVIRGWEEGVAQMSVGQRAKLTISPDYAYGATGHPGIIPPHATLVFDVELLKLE

For `CC[C@H](C(=O)N1CCCC[C@H]1C(=O)OC(CCc1ccc(OC)c(OC)c1)c1cccc(OCC(=O)NCCOCCOCCOCCC(=O)NCCOCCN[C@@H](Cc2ccccc2)C(=O)N2C/C(=C\c3ccc(Cl)c(Cl)c3)C(=O)/C(=C/c3ccc(Cl)c(Cl)c3)C2)c1)c1cc(OC)c(OC)c(OC)c1` (some centres unmarked) [RAFKBP4], the “FKBP12 degradation in MCF7 cells” value on FKBP12 is recorded as “FKBP12 degradation”.
Consider `Cc1sc2c(c1C)C(c1ccc(Cl)cc1)=N[C@@H](CC(=O)NCCN1CCN(CCCCCCOc3ccc(C[C@H](N)C(=O)N4C/C(=C\c5ccc(Cl)c(Cl)c5)C(=O)/C(=C/c5ccc(Cl)c(Cl)c5)C4)cc3)CC1)c1nnc(C)n1-2` [RAJQ9], for which, on RPN13 and BRD4, the “RPN13 and BRD4 dimerization” value was “can bring these two proteins (RPN13 and BRD4) together; also recorded: can dimerize these two proteins together”.
